Measurements published in patent publication US20230219931A1, “FUSED HETEROARYL HYDROXAMATES AS STING AGONISTS” (BiSiChem Co., Ltd., priority 2022, published 2023).
Counter-ions that a name gives are not always drawn.

What follows are compounds tested on ISG reporter activity in THP1-Dual cell (assay: ISG reporter assay). Settings: Homo sapiens, compounds incubated with cells for 24 hours, QUANTI-Blue, absorbance at 655 nm.
Format: cell-based

Question: CCn1nc(C)cc1C(=O)Nc1nc2cc(C(N)=O)cc(OC)c2n1C/C=C/Cn1c(NC(=O)c2cc(C)nn2CC)nc2cc(C(N)=O)cc(OCC#CC3CCN(C(=O)OC(C)(C)C)CC3)c21 [Example 3, tert-butyl (E)-4-(3-((5-carbamoyl-1-(4-(5-carbamoyl-2-(1-ethyl-3-methyl-1H-pyrazole-5-carboxamido)-7-methoxy-1H-benzo[d]imidazol-1-yl)but-2-en-1-yl)-2-(1-ethyl-3-methyl-1H-pyrazole-5-carboxamido)-1H-benzo[d]imidazol-7-yl)oxy)prop-1-yn-1-yl)piperidine-1-carboxylate] was tested. Which EC50 did it give?
Answer: < 50 nM

Question: For CCn1nc(C)cc1C(=O)Nc1nc2cc(C(N)=O)cc(OC)c2n1C/C=C/Cn1c(NC(=O)c2cc(C)nn2CC)nc2cc(C(N)=O)cc(OCC#CC3CCN(C(=O)C4CCN(C(=O)OC(C)(C)C)CC4)CC3)c21 [Example 12, tert-butyl (E)-4-(4-(3-((5-carbamoyl-1-(4-(5-carbamoyl-2-(1-ethyl-3-methyl-1H-pyrazole-5-carboxamido)-7-methoxy-1H-benzo[d]imidazol-1-yl)but-2-en-1-yl)-2-(1-ethyl-3-methyl-1H-pyrazole-5-carboxamido)-1H-benzo[d]imidazol-7-yl)oxy)prop-1-yn-1-yl)piperidine-1-carbonyl)piperidine-1-carboxylate], which EC50 is on record?
Answer: < 50 nM

Question: How did the EC50 turn out when CCn1nc(C)cc1C(=O)Nc1nc2cc(C(N)=O)cc(OC)c2n1C/C=C/Cn1c(NC(=O)c2cc(C)nn2CC)nc2cc(C(N)=O)cc(OCC#CC3CCN(C(=O)OC4CCNCC4)CC3)c21 [Example 9, piperidin-4-yl (E)-4-(3-((5-carbamoyl-1-(4-(5-carbamoyl-2-(1-ethyl-3-methyl-1H-pyrazole-5-carboxamido)-7-methoxy-1H-benzo[d]imidazol-1-yl)but-2-en-1-yl)-2-(1-ethyl-3-methyl-1H-pyrazole-5-carboxamido)-1H-benzo[d]imidazol-7-yl)oxy)prop-1-yn-1-yl)piperidine-1-carboxylate hydrochloride] was run?
Answer: 50 to 500 nM

Question: For CCn1nc(C)cc1C(=O)Nc1nc2cc(C(N)=O)cc(OC)c2n1C/C=C/Cn1c(NC(=O)c2cc(C)nn2CC)nc2cc(C(N)=O)cc(OCC#CCC3CCCN(C(=O)OC(C)(C)C)C3)c21 (stereo not shown) [Example 52, tert-butyl (E)-3-(4-((5-carbamoyl-1-(4-(5-carbamoyl-2-(1-ethyl-3-methyl-1H-pyrazole-5-carboxamido)-7-methoxy-1H-benzo[d]imidazol-1-yl)but-2-en-1-yl)-2-(1-ethyl-3-methyl-1H-pyrazole-5-carboxamido)-1H-benzo[d]imidazol-7-yl)oxy)but-2-yn-1-yl)piperidine-1-carboxylate], which EC50 is on record?
Answer: < 50 nM

Question: Which EC50 does the source give for CCn1nc(C)cc1C(=O)Nc1nc2cc(C(N)=O)cc(OC)c2n1C/C=C/Cn1c(NC(=O)c2cc(C)nn2CC)nc2cc(C(N)=O)cc(OCC#CCC3CCN(C(=O)OCCO)CC3)c21 [Example 45, 2-hydroxyethyl (E)-4-(4-((5-carbamoyl-1-(4-(5-carbamoyl-2-(1-ethyl-3-methyl-1H-pyrazole-5-carboxamido)-7-methoxy-1H-benzo[d]imidazol-1-yl)but-2-en-1-yl)-2-(1-ethyl-3-methyl-1H-pyrazole-5-carboxamido)-1H-benzo[d]imidazol-7-yl)oxy)but-2-yn-1-yl)piperidine-1-carboxylate] here?
Answer: < 50 nM

Question: Which EC50 does the source give for CCn1nc(C)cc1C(=O)Nc1nc2cc(C(N)=O)cc(OC)c2n1C/C=C/Cn1c(NC(=O)c2cc(C)nn2CC)nc2cc(C(N)=O)cc(OCC#CCN3CCN(C(=O)OC(C)(C)C)CC3)c21 [Example 37] here?
Answer: < 50 nM

Question: Which EC50 does the source give for CCn1nc(C)cc1C(=O)Nc1nc2cc(C(N)=O)cc(OC)c2n1C/C=C/Cn1c(NC(=O)c2cc(C)nn2CC)nc2cc(C(N)=O)cc(OCC#CC3CCN(C(=O)OC4CCCC4)CC3)c21 [Example 7, cyclopentyl (E)-4-(3-((5-carbamoyl-1-(4-(5-carbamoyl-2-(1-ethyl-3-methyl-1H-pyrazole-5-carboxamido)-7-methoxy-1H-benzo[d]imidazol-1-yl)but-2-en-1-yl)-2-(1-ethyl-3-methyl-1H-pyrazole-5-carboxamido)-1H-benzo[d]imidazol-7-yl)oxy)prop-1-yn-1-yl)piperidine-1-carboxylate] here?
Answer: < 50 nM

Question: For CCn1nc(C)cc1C(=O)Nc1nc2cc(C(N)=O)cc(OC)c2n1C/C=C/Cn1c(NC(=O)c2cc(C)nn2CC)nc2cc(C(N)=O)cc(OCC#CC3CCN(C(=O)OC4CCN(C(=O)OC(C)(C)C)CC4)CC3)c21 [Example 8, 1-(tert-butoxycarbonyl)piperidin-4-yl (E)-4-(3-((5-carbamoyl-1-(4-(5-carbamoyl-2-(1-ethyl-3-methyl-1H-pyrazole-5-carboxamido)-7-methoxy-1H-benzo[d]imidazol-1-yl)but-2-en-1-yl)-2-(1-ethyl-3-methyl-1H-pyrazole-5-carboxamido)-1H-benzo[d]imidazol-7-yl)oxy)prop-1-yn-1-yl)piperidine-1-carboxylate], which EC50 is on record?
Answer: < 50 nM

Question: CCn1nc(C)cc1C(=O)Nc1nc2cc(C(N)=O)cc(OC)c2n1C/C=C/Cn1c(NC(=O)c2cc(C)nn2CC)nc2cc(C(N)=O)cc(OCC#CC3CCN(C(=O)OC(C)C)CC3)c21 [Example 5, isopropyl (E)-4-(3-((5-carbamoyl-1-(4-(5-carbamoyl-2-(1-ethyl-3-methyl-1H-pyrazole-5-carboxamido)-7-methoxy-1H-benzo[d]imidazol-1-yl)but-2-en-1-yl)-2-(1-ethyl-3-methyl-1H-pyrazole-5-carboxamido)-1H-benzo[d]imidazol-7-yl)oxy)prop-1-yn-1-yl)piperidine-1-carboxylate] was tested. Which EC50 did it give?
Answer: < 50 nM

Question: For CCn1nc(C)cc1C(=O)Nc1nc2cc(C(N)=O)cc(OC)c2n1C/C=C/Cn1c(NC(=O)c2cc(C)nn2CC)nc2cc(C(N)=O)cc(OCC#CC3CCN(S(=O)(=O)c4ccc(C)cc4)CC3)c21 [Example 23, (E)-1-(4-(5-carbamoyl-2-(1-ethyl-3-methyl-1H-pyrazole-5-carboxamido)-7-((3-(1-tosylpiperidin-4-yl)prop-2-yn-1-yl)oxy)-1H-benzo[d]imidazol-1-yl)but-2-en-1-yl)-2-(1-ethyl-3-methyl-1H-pyrazole-5-carboxamido)-7-methoxy-1H-benzo[d]imidazole-5-carboxamide], which EC50 is on record?
Answer: < 50 nM

Question: How did the EC50 turn out when CCn1nc(C)cc1C(=O)Nc1nc2cc(C(N)=O)cc(OC)c2n1C/C=C/Cn1c(NC(=O)c2cc(C)nn2CC)nc2cc(C(N)=O)cc(OCC#CC3CCN(C(=O)N4CCOCC4)CC3)c21 [Example 15, (E)-1-(4-(5-carbamoyl-2-(1-ethyl-3-methyl-1H-pyrazole-5-carboxamido)-7-((3-(1-(morpholine-4-carbonyl)piperidin-4-yl)prop-2-yn-1-yl)oxy)-1H-benzo[d]imidazol-1-yl)but-2-en-1-yl)-2-(1-ethyl-3-methyl-1H-pyrazole-5-carboxamido)-7-methoxy-1H-benzo[d]imidazole-5-carboxamide] was run?
Answer: < 50 nM

Question: Which EC50 does the source give for CCn1nc(C)cc1C(=O)Nc1nc2cc(C(N)=O)cc(OC)c2n1C/C=C/Cn1c(NC(=O)c2cc(C)nn2CC)nc2cc(C(N)=O)cc(OCC#CC3CCN(C(=O)N4CCC(O)CC4)CC3)c21 [Example 18, (E)-1-(4-(5-carbamoyl-2-(1-ethyl-3-methyl-1H-pyrazole-5-carboxamido)-7-((3-(1-(4-hydroxypiperidine-1-carbonyl)piperidin-4-yl)prop-2-yn-1-yl)oxy)-1H-benzo[d]imidazol-1-yl)but-2-en-1-yl)-2-(1-ethyl-3-methyl-1H-pyrazole-5-carboxamido)-7-methoxy-1H-benzo[d]imidazole-5-carboxamide] here?
Answer: < 50 nM

Question: Which EC50 does the source give for CCn1nc(C)cc1C(=O)Nc1nc2cc(C(N)=O)cc(OC)c2n1C/C=C/Cn1c(NC(=O)c2cc(C)nn2CC)nc2cc(C(N)=O)cc(OCC#CC3CCN(C(=O)OC(C)(C)C)C3)c21 (stereo not shown) [Example 31, tert-butyl (E)-3-(3-((5-carbamoyl-1-(4-(5-carbamoyl-2-(1-ethyl-3-methyl-1H-pyrazole-5-carboxamido)-7-methoxy-1H-benzo[d]imidazol-1-yl)but-2-en-1-yl)-2-(1-ethyl-3-methyl-1H-pyrazole-5-carboxamido)-1H-benzo[d]imidazol-7-yl)oxy)prop-1-yn-1-yl)pyrrolidine-1-carboxylate] here?
Answer: < 50 nM

Question: CCn1nc(C)cc1C(=O)Nc1nc2cc(C(N)=O)cc(OC)c2n1C/C=C/Cn1c(NC(=O)c2cc(C)nn2CC)nc2cc(C(N)=O)cc(OCC#CCC3CCN(C(=O)OC4CC4)CC3)c21 [Example 44, cyclopropyl (E)-4-(4-((5-carbamoyl-1-(4-(5-carbamoyl-2-(1-ethyl-3-methyl-1H-pyrazole-5-carboxamido)-7-methoxy-1H-benzo[d]imidazol-1-yl)but-2-en-1-yl)-2-(1-ethyl-3-methyl-1H-pyrazole-5-carboxamido)-1H-benzo[d]imidazol-7-yl)oxy)but-2-yn-1-yl)piperidine-1-carboxylate] was tested. Which EC50 did it give?
Answer: < 50 nM

Question: How did the EC50 turn out when CCn1nc(C)cc1C(=O)Nc1nc2cc(C(=O)NOC)cc(OC)c2n1C/C=C/Cn1c(NC(=O)c2cc(C)nn2CC)nc2cc(C(N)=O)cc(OCC#CCN3CCN(C(=O)OC(C)(C)C)CC3)c21 [Example 36, tert-butyl (E)-4-(4-((5-carbamoyl-2-(1-ethyl-3-methyl-1H-pyrazole-5-carboxamido)-1-(4-(2-(1-ethyl-3-methyl-1H-pyrazole-5-carboxamido)-7-methoxy-5-(methoxycarbamoyl)-1H-benzo[d]imidazol-1-yl)but-2-en-1-yl)-1H-benzo[d]imidazol-7-yl)oxy)but-2-yn-1-yl)piperazine-1-carboxylate] was run?
Answer: 50 to 500 nM

Question: Which EC50 does the source give for CCn1nc(C)cc1C(=O)Nc1nc2cc(C(N)=O)cc(OC)c2n1C/C=C/Cn1c(NC(=O)c2cc(C)nn2CC)nc2cc(C(N)=O)cc(OCC#CCC3CN(C(=O)OC(C)(C)C)C3)c21 [Example 50, tert-butyl (E)-3-(4-((5-carbamoyl-1-(4-(5-carbamoyl-2-(1-ethyl-3-methyl-1H-pyrazole-5-carboxamido)-7-methoxy-1H-benzo[d]imidazol-1-yl)but-2-en-1-yl)-2-(1-ethyl-3-methyl-1H-pyrazole-5-carboxamido)-1H-benzo[d]imidazol-7-yl)oxy)but-2-yn-1-yl)azetidine-1-carboxylate] here?
Answer: < 50 nM
